Ends that are not written are not given here.
Legend:
embryonic cortical cells = assay: haptotactic migration assay, cortical cells; type: cell-based, rat; conditions: 1 day in vitro
Description: To test the cell adhesion and neuronal migration inducing properties of the NRPs a haptotactic migration cell assay was developed (Lu et al.,2001). For this purpose Transwell® cell culture dishes (Costar) with fitting inserts having pores therein with a 12 μm pore size were used to cultivate striatal and neocortical cells. In general, a test agent was adhered to the surface of a culture dish and an insert having pores was placed in culture medium over but not in contact with the surface of the culture dish. Test cells were placed in the inserts, and any cells migrating through the pores and onto the surface of the culture dish reflected chemattractiveness by the test molecule. Under these conditions, the surface of the culture dish would, over time, release some NRP molecules into the culture medium. It can be appreciated that the concentration of “free” NRP would be greater nearer the surface of the culture dish than at distances farther away from the culture dish, thereby creating a gradient in NRP concentration. […] By counting the number and morphology of such migrant cells, effects of NRPs on neuronal migration and differentiation can be evaluated. […]
For seeding striatal cells, 1.5 ml of Neurobasal/B27 medium was put into the culture dishes and 0.5 ml of NeurobasaVB27 medium was put into the insert. The assay was ready for cell seeding. […]

cerebellar microexplants = assay: cerebellar microexplant proliferation assay under injury (BrdU-positive nuclei); type: cell-based, rat
Protocol: Using the toxins described above, cerebellar explants were exposed for 24 hours, at the beginning of culturing to dilutions of NRP and 0.1 μM BrdU. Subsequently, 80% of the medium was changed without addition of new toxins and NRPs. The cerebellar cultures were fixed as described above after 3 days in vitro. The detection of the incorporated BrdU level was performed as described previously. Under these conditions, over 99% of the cells in the cerebellar population were neurons. Therefore any increase in cell number after NRP administration was most likely due to neuronal cell proliferation.
For statistical analysis of proliferation four fields (each field having an area of 0.65 mm^2) of each fixed cerebellar culture displaying highest density of BrdU-positive nuclei were chosen, and BrdU-positive nuclei were counted. Statistical significance was measured by Student's t-test.
Laminated cerebellar cortex was extracted from P3/4, P7/8 rat pups and triturated through gauze having a 125 μm pore size to obtain uniformly sized microexplants. After centrifugation for 3 minutes at 61 g and the pellet was resuspended in StartV medium (Biochrom) and the suspension seeded on poly-D-lysine coated coverslips in 6-well plates and incubated for 3 hrs to allow adherence, before 1 ml StartV per well was added. As described previously, glutamate/3-NP and NRP were also added. The explants are cultivated at 34° C. at 5% CO2 and 100% humidity for 48-72 hrs. BrdU was administered at start of cultivation for proliferation rate measurements and cells are counted per microscopic field after 48-72 hrs.

[1] = system: mouse forebrain neural stem cells; assay: neurosphere expansion assay, shift from symmetric to asymmetric division of neural stem cells; type: cell-based; conditions: nanomolar concentrations
Description: To determine whether NRPs could induce a shift of cells within neurospheres from symmetric (two stem cells, both stem cells) to asymmetric division of neural stem cells (1 stem cell, 1 neuronal progenitor or neuroblast cell), as has been described for erythropoietin (EPO) by Shingo et al. (2001), neurospheres were dissociated by trituration and seeded for expansion at a density of 200,000 cells/well in 6 well plates in NSA medium with EGF only, EGF plus varying concentrations of an NRP, or EGF plus 10 U/ml EPO. One half of the medium with fresh NRP compound was exchanged every other day. After 7 days the cells from the neurospheres were plated. In the presence of EGF, cells retain symmetric cell division. With the removal of EGF, cells begin to differentiate (asymmetric cell division). Subsequently, the cells were subjected to a differentiation assay as described below, with the exception that bFGF was not added to the plating medium for the initial 24 h and differentiation for 7 days was allowed in control medium without NRPs or other compounds. In cells that had never been exposed to an NRP, the numbers of neuroblast cells were lower than in cells that had been exposed to an NRP or EPO. Therefore, NRPs can increase the differentiation of undifferentiated stem cells into neuroblast cells.

Substance	more neurons migrated to the culture dish bottom compared to BSA control (embryonic cortical cells; 15 ng immobilized, 1 pg/ml in medium)	number of cells with neurite outgrowth (embryonic cortical cells; 0.1 and 1 μg/ml coating in BSA)	up regulation of the proliferation rate observed for injured cerebellar microexplants (cerebellar microexplants; 0.1 pM)	up regulation of the proliferation rate observed for injured cerebellar microexplants (cerebellar microexplants; 100 pM)	enhancement of the proliferation rate (cerebellar microexplants; neurons injured using 3-NP/glutamate)	production of neuronal progenitors [1]
SEPEARRAPGRKGGVVCASLAADW-NH2 [NRP-7 segment SW, 24-mer form of mouse NRP-7]	49.8%	significantly increased	252.6%	123.7%	more than 200%	
KDPEARRAPGSLHPCLAAS-NH2 [NRP-2 segment KS, 19-mer fragment of NRP-2]						promoted the production of neuronal progenitors at the expense of multipotent stem cells
